Laboratory results reported in patent US12275795B2, “Binding molecules against BCMA and uses thereof” (NOVARTIS AG, priority 2018, dated 2025).

Key:
KMS11-luc cells = assay: RTCC assay of bivalent AB3 in combination with GSI (8x8 matrix); format: cell-based, human; settings: for shift of bivalent AB3 response curves with increasing GSI concentration: combination with bivalent AB3
Source text: Human T cells were isolated from peripheral blood of healthy human donors. First, peripheral blood mononuclear cells (PBMCs) were fractionated from donor blood using a Ficoll-Paque PLUS (GE Healthcare #17-1440-02) density gradient. T-cells were then isolated from PBMCs by negative selection according to manufacturer's recommended protocol (Miltenyi #130-096-535). The isolated T-cells were further expanded using Human T-Activator CD3/CD28 Dynabeads (Gibco #11132D) for nine days, then debeaded magnetically and stored as viable frozen aliquots in liquid nitrogen. The expanded T cells were used as effector T cells in RTCC assays where they were thawed from frozen aliquots, counted and used immediately at an Effector:Target (E:T) cell ratio of 3:1.
The target MM cell line KMS11 was transduced to constitutively express luciferase, which was used to measure cell viability/survival. KMS11 cells were pelleted and resuspended in fresh media immediately prior to plating to remove any basal level of shed BCMA that can have been present. 2,500 KMS11-luc target cells in 25 μL TCM were added to wells of 384-well plates. 50 nL of serially diluted bivalent AB3 and GSI solutions (LY411575, PR03084014, and BMS0708163) were acoustically dispensed to corresponding wells of the assay plates. 7,500 expanded T cells, as described above, were added to corresponding wells of assay plate in 20 μL TCM. The assay was incubated at 37° C./5% CO2 for 20 hr, followed by measurement of luciferase activity to indicate target cell viability (BrightGlo, Promega #E2650) following manufacturer's protocols. Target cells only (KMS11) without T cells or antibodies serve as control and represent 100% luciferase activity (100% viability). Data were plotted and analyzed using Spotfire, where EC50 values were calculated using sigmoidal, 4-parameter non-linear regression curve fit.
Data from bivalent AB3 and GSI combinations from Example 11 (FIG. 24) were plotted and analyzed using Spotfire, where EC50 values were calculated using sigmoidal, 4-parameter non-linear regression curve fit.

mBCMA on KMS11 cells = assay: Time course of membrane BCMA (mBCMA) by flow cytometry after GSI treatment; format: cell-based, human; settings: 2 nM LY411575 or 200 nM PF03084014, 42-hr time course
Description: (§1) KMS11 cells were cultured in a 6 well plate at 4×10^6 cells/well in 4 mL of RPMI1640 supplemented with 20% FBS (Gibco #11875-085, Seradigm #1500-500) per well. GSI stock solutions were prepared in DMSO at 10 mM, and added to the cells at final concentrations of 2 nM for LY411575 (Sigma #SML0506) or 200 nM for PF03084014 (Selleckchem #S8018) respectively. Cells were incubated at 37° C./5% CO2, and samples were collected at the following time points: 0, 1, 2, 4, 6, 8, 12, 18, 24, 30 and 42 hr. Collected samples were evaluated for BCMA expression by ELISA and flow cytometry as outline below.
(§2) A pre-treatment study was conducted as above except that KMS11 cells were treated overnight (22 hr) with only LY411575. Cells were washed twice with 3 volumes of growth medium, and re-plated with fresh growth medium without the GSI to the original 4 mL volume. […]
For each collected sample, cells were pelleted by centrifugation. […] Samples from all timepoints were analyzed together by flow cytometry on a BD LSR Fortessa instrument. […]
Where receptor density of BCMA was provided, the anti-BCMA antibody binding capacity (ABC) on KMS11 cells was determined using Quantum Simply Cellular beads (Bangs Laboratories #815) following vendor supplied protocol. The ABC is an estimate of the quantity of receptors per cell.

sBCMA from KMS11 cells = assay: Time course of shed BCMA (sBCMA) by ELISA after GSI treatment; format: cell-based, human; settings: 2 nM LY411575 or 200 nM PF03084014, 42-hr time course
Description: as §1, §2
sBCMA levels in supernatants collected and frozen at the various timepoints were determined by ELISA following vendor supplied protocol (R&D Systems #DY193). […] Quantified values as determined by the kit were divided by 5.5 to correct for a molecular mass difference between BCMA-Fc fusion protein used in the kit as a standard curve (32,554.6 Da) and the mass of endogenously shed BCMA extra-cellular domain (5,899.3 Da). […]

mBCMA in KMS11 xenograft = assay: In vivo GSI treatment, membrane BCMA on tumor cells by flow cytometry; parameters: species or system NSG mice; settings: 150 mg/kg BID for 5 days
Description: On Day 0, KMS11-Luc cells were harvested and suspended in Hanks Balanced Salt Solution (HBSS) and 50% matrigel solution at a concentration of 25×10^6 cells/mL. Female NOD.Cg-Prkdc^scidII2rg^tm1Wji/SzJ mice (NSG mice) at ˜6 weeks old (Jackson Laboratories, ME, USA), were implanted sub-cutaneously (SQ) with 200 μL of the cell suspension to deliver 5×10^6 KMS11-Luc cells SQ in the right flank. Seven days following tumor inoculation, each mouse received an adoptive transfer (AdT) of 10×10^6 of peripheral blood mononuclear cells (PBMCs) in 100 μL via IV injection in the lateral tail vein. The PBMCs were previously isolated from a human leukopak, frozen and stored in Cryostor10 media in vapor phase liquid Nitrogen tank until use. Immediately prior to AdT, PBMCs were thawed and suspended at a concentration of 100×10^6 cells/ml in Hanks Balanced Salt Solution (HBSS). […] To obtain single cell suspensions from excised tumors, the tissues were minced with scissors followed by mechanical homogenization in dissociation buffer containing RPMI (Gibco, Life Technologies) with Liberase™ research grade collagenase (Roche) and DNase I recombinase (Roche) using the GentleMAX (Miltenyi). Following a 5 minute incubation at 37° C. in a water or bead bath, the homogenates were quenched with 10% FBS and filtered on a 70-μM sieve (352350, Falcon). The concentration of single cell suspensions were measured on the Vi-Cell (Beckman Coulter), and cells were pelleted by centrifugation for 5 minutes at 1200 rpm. The supernatants were discarded and cell pellets were resuspended in 400 μL of RPMI (Gibco, Life Technologies). Tumor cells were plated in a volume of 100 μL/well at a cell density of 500,000 to 2 million/well. For cell surface staining, live/dead stain was added to plated samples in DPBS and incubated for 30 minutes. […] All samples were analyzed together by flow cytometry at the completion of the study. […]

[1] = tested on: sBCMA in KMS11 xenograft model serum; assay: In vivo GSI treatment, shed BCMA in serum by ELISA; parameters: species or system NSG mice; settings: 150 mg/kg BID for 5 days
Description: sBCMA levels in supernatants collected and frozen at the various timepoints were determined by ELISA following vendor supplied protocol (R&D Systems #DY193). Briefly, recombinant human BCMA-Fc protein was included in the kit, and used to generate a standard curve. Collected samples were assayed and sBCMA concentrations extrapolated from the standard curve. […] The results were plotted in Tibco Spotfire or Graphpad Prism against the concentration of GSI. On Day 0, KMS11-Luc cells were harvested and suspended in Hanks Balanced Salt Solution (HBSS) and 50% matrigel solution at a concentration of 25×10^6 cells/mL. Female NOD.Cg-Prkdc^scidII2rg^tm1Wji/SzJ mice (NSG mice) at ˜6 weeks old (Jackson Laboratories, ME, USA), were implanted sub-cutaneously (SQ) with 200 μL of the cell suspension to deliver 5×10^6 KMS11-Luc cells SQ in the right flank. Seven days following tumor inoculation, each mouse received an adoptive transfer (AdT) of 10×10^6 of peripheral blood mononuclear cells (PBMCs) in 100 μL via IV injection in the lateral tail vein. The PBMCs were previously isolated from a human leukopak, frozen and stored in Cryostor10 media in vapor phase liquid Nitrogen tank until use. Immediately prior to AdT, PBMCs were thawed and suspended at a concentration of 100×10^6 cells/ml in Hanks Balanced Salt Solution (HBSS).

[2] = KMS11-luc, expanded T cells E:T 3:1, 20 hr

| SMILES | GSI concentration with modest enhancement of bivalent AB3 potency (KMS11-luc cells; [2]) [nM] | GSI concentration with significant enhancement of bivalent AB3 potency (KMS11-luc cells; [2]) [nM] | shift of bivalent AB3 response curves with increasing GSI concentration (KMS11-luc cells) | mBCMA levels over time (mBCMA on KMS11 cells) | sBCMA concentration over time (sBCMA from KMS11 cells) | GSI concentration with no effect on bivalent AB3 activity (KMS11-luc cells; [2]) [pM] | GSI concentration with small effect on bivalent AB3 activity (KMS11-luc cells; [2]) [pM] | increase in mBCMA compared to the vehicle control (mBCMA in KMS11 xenograft) [fold] | mBCMA levels by 24 hours post last dose (mBCMA in KMS11 xenograft) | time point post last dose through which mBCMA increase was sustained (mBCMA in KMS11 xenograft) [h] | sBCMA levels between 24 and 48 hours post last dose [1] | time post last dose for which sBCMA levels were ablated [1] |
| --- | --- | --- | --- | --- | --- | --- | --- | --- | --- | --- | --- | --- |
| NC(=O)[C@@H](CCC(F)(F)F)N(Cc1ccc(-c2ncon2)cc1F)S(=O)(=O)c1ccc(Cl)cc1 [BMS-708163, (R)-2-((4-chloro-N-(2-fluoro-4-(1,2,4-oxadiazol-3-yl)benzyl)phenyl)sulfonamido)-5,5,5-trifluoropentanamide] | 8 | ≥ 31 | response curves shifted to the left |  |  |  |  |  |  |  |  |  |
| C[C@H](NC(=O)[C@@H](O)c1cc(F)cc(F)c1)C(=O)N[C@@H]1C(=O)N(C)c2ccccc2-c2ccccc21 [LY411575, (S)-2-((S)-2-(3,5-difluorophenyl)-2-hydroxyacetamido)-N—((S)-5-methyl-6-oxo-6,7-dihydro-5H-dibenzo[b,d]azepin-7-yl)propanamide] |  | ≥ 0.125 | response curves shifted to the left | increased over time | no increase over time | ≤ 7.8 | 31.2 |  |  |  |  |  |
| CCC[C@H](N[C@H]1CCc2cc(F)cc(F)c2C1)C(=O)Nc1cn(C(C)(C)CNCC(C)(C)C)cn1 [PF03084014, (S)-2-(((S)-6,8-difluoro-1,2,3,4-tetrahydronaphthalen-2-yl)amino)-N-(1-(2-methyl-1-(neopentylamino)propan-2-yl)-1H-imidazol-4-yl)pentanamide] | 3 | ≥ 12 | response curves shifted to the left | increased over time | no increase over time |  |  | 10 | dropped back to levels similar to those observed for the vehicle control | 7 | returning to levels comparable to those observed for the vehicle treated animals | up to 24 hours |
